Among the data in PubChem BioAssay AID212 (DTP/NCI, 2004) are T/C values, retold here.

Values joined by “and” are separate entries in the source; they are usually repeats but may differ in a detail not shown here. Identical values can stand only once. Inconclusive results are not listed.

This experiment has as its system BDF1 mice, colon carcinoma 38 sc, T/C %. Nature of the experiment: NCI In Vivo Anticancer Drug Screen. Data for tumor model Colon Carcinoma 38 (subcutaneous) in B6D2F1 (BDF1) mice. To be noted: endpoint: median tumor weight (est.), higher = larger tumour. In outline:
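Mice with transplanted tumors are treated with compound or vehicle. Survival or tumor size is then measured in both groups. The ratio of treated to control gives the reported figure.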

[1] abbreviates: dose: 100.0 mg/kg/injection, schedule: Q07DX002 (ip), vehicle: saline.
The mark [2] stands for this setting: dose: 0.12 mg/kg/injection, schedule: Q07DX002 (ip), vehicle: saline.
[3] abbreviates: dose: 0.25 mg/kg/injection, schedule: Q07DX002 (ip), vehicle: saline.
The mark [4] stands for this setting: dose: 1.0 mg/kg/injection, schedule: Q07DX002 (ip), vehicle: saline.

Take `COC1CC(C)C(OC)c2cc(O)cc(c2O)NC(=O)/C(C)=C/C=C\C(C)C(OC(N)=O)/C(C)=C\C(C)C1OC` (centres undefined): the T/C was 114 % of control (dose: 3.13 mg/kg/injection, schedule: Q07DX002 (ip), vehicle: saline + alcohol); 69 % of control (dose: 12.5 mg/kg/injection, schedule: Q07DX002 (ip), vehicle: saline + alcohol); 94 % of control (dose: 25.0 mg/kg/injection, schedule: Q07DX002 (ip), vehicle: saline + alcohol).
As for `N=C(N)c1ccc(/C=C/c2ccc(C(=N)N)cc2O)cc1`, the T/C (dose: 6.25 mg/kg/injection, schedule: Q07DX002 (ip), vehicle: water) was 86 % of control; the T/C (dose: 12.5 mg/kg/injection, schedule: Q07DX002 (ip), vehicle: water) was 95 % of control; the T/C (dose: 25.0 mg/kg/injection, schedule: Q07DX002 (ip), vehicle: water) was 112 % of control; the T/C (dose: 100.0 mg/kg/injection, schedule: Q07DX002 (ip), vehicle: water) was 108 % of control.
With `O=C1N(CC2CO2)CCN1CC1CO1` (centres undefined), the T/C was 39 % of control (dose: 25.0 mg/kg/injection, schedule: Q07DX002 (ip), vehicle: saline); 26 % of control (dose: 50.0 mg/kg/injection, schedule: Q07DX002 (ip), vehicle: saline); 41 % of control under setting [1]; 41 % of control (dose: 200.0 mg/kg/injection, schedule: Q07DX002 (ip), vehicle: saline); 29 % of control (dose: 400.0 mg/kg/injection, schedule: Q07DX002 (ip), vehicle: saline).
Regarding `COC1C(/C=C/C(C)=O)OC2OC(C)(C)OC21` (centres undefined), the T/C under setting [1] was 114 % of control and 98 % of control.
As to `COc1cc(Cc2nccc3cc(OC)c(OC)cc23)c(C(C)=O)cc1OC`, the T/C is 166 % of control (dose: 12.5 mg/kg/injection, schedule: Q07DX002 (ip), vehicle: suspension in saline); 108 % of control (dose: 25.0 mg/kg/injection, schedule: Q07DX002 (ip), vehicle: suspension in saline); 110 % of control (dose: 50.0 mg/kg/injection, schedule: Q07DX002 (ip), vehicle: suspension in saline); 69 % of control (dose: 100.0 mg/kg/injection, schedule: Q07DX002 (ip), vehicle: suspension in saline).
Consider `NC(=O)Nc1cc(NC(N)=O)cc(N(CCCl)CCCl)c1`, for which the T/C by setting is: (dose: 10.0 mg/kg/injection, schedule: Q07DX002 (ip), vehicle: Klucel (hydroxypropylcellulose) (HPC)) 89 % of control; (dose: 20.0 mg/kg/injection, schedule: Q07DX002 (ip), vehicle: Klucel (hydroxypropylcellulose) (HPC)) 68 % of control; (dose: 40.0 mg/kg/injection, schedule: Q07DX002 (ip), vehicle: Klucel (hydroxypropylcellulose) (HPC)) 96 % of control.
For the compound `C/C=C1\C[C@@H]2C(OC)Nc3cc(O)c(OC)cc3C(=O)N2C1` (some centres undefined), the T/C by setting is: (dose: 0.06 mg/kg/injection, schedule: Q07DX002 (ip), vehicle: saline) 121 % of control; under setting [2], 98 % of control; (dose: 0.12 mg/kg/injection, schedule: Q07DX002 (ip), vehicle: suspension in saline) 122 % of control; under setting [3], 102 % of control; (dose: 0.25 mg/kg/injection, schedule: Q07DX002 (ip), vehicle: suspension in saline) 108 % of control; (dose: 0.5 mg/kg/injection, schedule: Q07DX002 (ip), vehicle: saline) 102 % of control. The T/C was 166 % of control (dose: 0.5 mg/kg/injection, schedule: Q07DX002 (ip), vehicle: suspension in saline); 105 % of control under setting [4]; 84 % of control (dose: 1.0 mg/kg/injection, schedule: Q07DX002 (ip), vehicle: suspension in saline).
Take `COc1cc2c(c(OC)c1OC)-c1ccc(OC)c(=O)cc1[C@@H](NC(C)=O)CC2`: the T/C was 105 % of control under setting [2]; 121 % of control under setting [3]; 119 % of control (dose: 0.37 mg/kg/injection, schedule: Q07DX002 (ip), vehicle: saline); 69 % of control (dose: 0.75 mg/kg/injection, schedule: Q07DX002 (ip), vehicle: saline); 159 % of control under setting [4]; 87 % of control (dose: 1.5 mg/kg/injection, schedule: Q07DX002 (ip), vehicle: saline). The T/C runs as follows: (dose: 1.56 mg/kg/injection, schedule: Q07DX002 (ip), vehicle: saline) 95 % of control; (dose: 3.0 mg/kg/injection, schedule: Q07DX002 (ip), vehicle: saline) 87 % of control; (dose: 4.0 mg/kg/injection, schedule: Q07DX002 (ip), vehicle: saline) 111 % of control; (dose: 6.0 mg/kg/injection, schedule: Q07DX002 (ip), vehicle: saline) 5 % of control.
As to `CC1=C(/C=C/C(C)=C/C=C/C(C)=C/C(=O)O)C(C)(C)CCC1`, the T/C is, setting by setting: (dose: 3.12 mg/kg/injection, schedule: Q07DX003 (ip), vehicle: saline with Tween-80) 87 % of control; (dose: 6.25 mg/kg/injection, schedule: Q07DX003 (ip), vehicle: saline with Tween-80) 96 % of control; (dose: 8.0 mg/kg/injection, schedule: Q07DX003 (ip), vehicle: saline with Tween-80) 103 % of control; (dose: 12.5 mg/kg/injection, schedule: Q07DX003 (ip), vehicle: saline with Tween-80) 99 % of control; (dose: 25.0 mg/kg/injection, schedule: Q07DX003 (ip), vehicle: saline with Tween-80) 100 % of control; (dose: 32.0 mg/kg/injection, schedule: Q07DX003 (ip), vehicle: saline with Tween-80) 98 % of control. For the setting “dose: 64.0 mg/kg/injection, schedule: Q07DX003 (ip), vehicle: saline with Tween-80”, the T/C was 102 % of control.
In the case of `CCC(c1ccc(OC(=O)Cc2ccc(N(CCCl)CCCl)cc2)cc1)C(CC)c1ccc(OC(=O)Cc2ccc(N(CCCl)CCCl)cc2)cc1` (centres undefined), the T/C (dose: 9.38 mg/kg/injection, schedule: Q07DX002 (ip), vehicle: saline with Tween-80) is 120 % of control; the T/C (dose: 18.7 mg/kg/injection, schedule: Q07DX002 (ip), vehicle: saline with Tween-80) is 92 % of control; the T/C (dose: 37.5 mg/kg/injection, schedule: Q07DX002 (ip), vehicle: saline with Tween-80) is 33 % of control; the T/C (dose: 75.0 mg/kg/injection, schedule: Q07DX002 (ip), vehicle: saline with Tween-80) was 46 % of control; the T/C (dose: 300.0 mg/kg/injection, schedule: Q07DX002 (ip), vehicle: saline with Tween-80) was 51 % of control and 61 % of control; the T/C (dose: 600.0 mg/kg/injection, schedule: Q07DX002 (ip), vehicle: saline with Tween-80) is 51 % of control and 61 % of control.
As for `Cc1ncc(CNC(=O)N(CCCl)N=O)c(N)n1`, the T/C reads like this: (dose: 6.25 mg/kg/injection, schedule: Q07DX003 (ip), vehicle: saline) 82 % of control; (dose: 12.5 mg/kg/injection, schedule: Q07DX002 (ip), vehicle: Klucel (hydroxypropylcellulose) (HPC)) 73 % of control; (dose: 12.5 mg/kg/injection, schedule: Q07DX003 (ip), vehicle: saline) 88 % of control; (dose: 25.0 mg/kg/injection, schedule: Q07DX002 (ip), vehicle: Klucel (hydroxypropylcellulose) (HPC)) 32 % of control; (dose: 25.0 mg/kg/injection, schedule: Q07DX003 (ip), vehicle: saline) 31 % of control.
`CC(=O)Nc1cscc1NC(C)=O`: the T/C is 115 % of control (dose: 50.0 mg/kg/injection, schedule: Q07DX002 (ip), vehicle: saline with Tween-80); 91 % of control (dose: 100.0 mg/kg/injection, schedule: Q07DX002 (ip), vehicle: saline with Tween-80); 66 % of control (dose: 200.0 mg/kg/injection, schedule: Q07DX002 (ip), vehicle: saline with Tween-80); 93 % of control (dose: 400.0 mg/kg/injection, schedule: Q07DX002 (ip), vehicle: saline with Tween-80); 73 % of control (dose: 800.0 mg/kg/injection, schedule: Q07DX002 (ip), vehicle: saline with Tween-80).
In the case of `COc1cc(O)c2c(O)c3c(c4c2c1[C@]1(C4)C(C)=CCCC1(C)C)[C@H](O)[C@@]1(O)CC(=O)C(C(N)=O)=C(O)[C@@]1(O)C3=O`, the T/C is, setting by setting: (dose: 6.25 mg/kg/injection, schedule: Q07DX002 (ip), vehicle: saline with Tween-80) 92 % of control and 97 % of control; (dose: 25.0 mg/kg/injection, schedule: Q07DX002 (ip), vehicle: saline with Tween-80) 87 % of control and 101 % of control.
